Experimental findings from US20240317775A1, “H4 Antagonist Compounds” (HEPTARES THERAPEUTICS LIMITED, priority 2020, published 2024) are described below.

The target of this assay is T1, human H4 receptor (Homo sapiens, UniProt Q9H3N8).
T1 construct: expressed in transfected cells; host or cells: HEKf cells infected with baculovirus
The assay is described as follows: H4 Antagonist Functional cAMP Gi Assay. The class given is cell-based. The following applies: HEKf cells expressing human H4 receptor; functional antagonist pKb by Cheng-Prusoff vs histamine; read-out: Human H4 cAMP fpKb (converted). As for the experimental part: HEKf cells were infected overnight using baculovirus expressing the human H4 receptor, then centrifuged at 1,200 rpm for 5 min, frozen in cell freezing medium (Sigma) and stored at −150° C. On the day of assay, the cells were thawed and resuspended in HBSS with 500 nM IBMX to achieve a density of 1,500 cells/well. H4 ligands were prepared in DMSO and stamped by LabCyte ECHO acoustic dispensing at 25 nL in low volume plates. 10 μL/well cells were plated in the presence of 1 μM forskolin, subjected to centrifugation at 1,200 rpm for 1 min and incubated for 30 min prior to addition of Cisbio cAMP detection reagents to a total volume 20 μL/well. […] Following detection reagent addition and shaking at room temperature for 60 min, cAMP accumulation was measured using HTRF on a PheraStar plate reader. EC50 values were generated using a 4-parameter logistical fit equation to quantify agonist potencies. Functional antagonist affinity values were generated using the Cheng-Prusoff equation to calculate a pKb value using the antagonist assay data.

T1 sequence (Q9H3N8 whole entry): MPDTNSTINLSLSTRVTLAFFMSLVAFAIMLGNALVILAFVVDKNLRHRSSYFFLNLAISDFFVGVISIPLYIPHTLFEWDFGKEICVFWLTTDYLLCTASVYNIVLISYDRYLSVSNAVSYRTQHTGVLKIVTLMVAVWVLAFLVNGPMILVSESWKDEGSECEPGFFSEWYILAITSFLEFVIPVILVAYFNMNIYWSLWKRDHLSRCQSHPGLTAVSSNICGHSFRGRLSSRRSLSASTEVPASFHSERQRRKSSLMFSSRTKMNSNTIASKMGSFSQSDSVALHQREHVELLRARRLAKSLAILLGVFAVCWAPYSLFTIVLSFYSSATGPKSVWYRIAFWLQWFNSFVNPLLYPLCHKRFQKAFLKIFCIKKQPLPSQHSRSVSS

Take `CNC1CN(c2nc(N)nc3c2OCC[C@H](C(C)C)N3)C1` [Example 13-2, (R)-8-Isopropyl-4-(3-(methylamino)azetidin-1-yl)-6,7,8,9-tetrahydropyrimido[5,4-b][1,4]oxazepin-2-amine]: the Kb is 15.8 nM. As for `CN[C@@H]1CCN(c2nc(C)nc3c2OCC(C(C)C)N3)C1` (stereo partly drawn) [Example 10-1, (3R)-1-(7-Isopropyl-2-methyl-7,8-dihydro-6H-pyrimido[5,4-b][1,4]oxazin-4-yl)-N-methylpyrrolidin-3-amine], the Kb is 398 nM.

On to `CN[C@@H]1CCN(c2nc(N)nc3c2OC[C@@H](C2CC2)N3)C1` [Example 1-6, (R)-7-Cyclopropyl-4-((R)-3-(methylamino)pyrrolidin-1-yl)-7,8-dihydro-6H-pyrimido[5,4-b][1,4]oxazin-2-amine], for which the Kb was 0.631 nM. Regarding `COC(C)(C)[C@@H]1COc2c(nc(N)nc2N2CC[C@@H](N)C2)N1` [Example 2-6, (S)-4-((R)-3-Aminopyrrolidin-1-yl)-7-(2-methoxypropan-2-yl)-7,8-dihydro-6H-pyrimido[5,4-b][1,4]oxazin-2-amine], the Kb was 20 nM. Take `CN[C@@H]1CCN(c2nc(N)nc3c2O[C@@H](C)[C@H](C)N3)C1` [Example 1-18, (6S,7S)-6,7-Dimethyl-4-((R)-3-(methylamino)pyrrolidin-1-yl)-7,8-dihydro-6H-pyrimido[5,4-b][1,4]oxazin-2-amine]: the Kb was 316 nM.

As for `CN[C@@H]1CCN(c2nc(N)nc3c2O[C@H](C)[C@H](C)N3)C1` [Example 1-19, (6R,7S)-6,7-Dimethyl-4-((R)-3-(methylamino)pyrrolidin-1-yl)-7,8-dihydro-6H-pyrimido[5,4-b][1,4]oxazin-2-amine], the Kb was 79.4 nM. Turning to `CC[C@@H]1COc2c(nc(N)nc2N2CC(NC)C2)N1` [Example 3-1, (R)-7-Ethyl-4-(3-(methylamino)azetidin-1-yl)-7,8-dihydro-6H-pyrimido[5,4-b][1,4]oxazin-2-amine], the Kb was 2 nM.

`CN[C@@H]1CCN(c2nc(N)nc3c2O[C@H](C)[C@@H](C)N3)C1` [Example 1-17, (6R,7R)-6,7-Dimethyl-4-((R)-3-(methylamino)pyrrolidin-1-yl)-7,8-dihydro-6H-pyrimido[5,4-b][1,4]oxazin-2-amine]: the Kb is 79.4 nM. As to `CC[C@@H]1COc2c(nc(N)nc2N2CC[C@@H](N)C2)N1` [Example 2-1, (R)-4-((R)-3-Aminopyrrolidin-1-yl)-7-ethyl-7,8-dihydro-6H-pyrimido[5,4-b][1,4]oxazin-2-amine], the Kb is 3.16 nM.

As to `CN[C@@H]1CCN(c2nc(N)nc3c2OCC(C2COC2)N3)C1` (stereo partly drawn) [Example 1-13, 4-((R)-3-(Methylamino)pyrrolidin-1-yl)-7-(oxetan-3-yl)-7,8-dihydro-6H-pyrimido[5,4-b][1,4]oxazin-2-amine], the Kb was 31.6 nM. Consider `CN[C@@H]1CCN(c2ncnc3c2OC(C)CN3)C1` (stereo partly drawn) [Example 7-5, (3R)—N-Methyl-1-(6-methyl-7,8-dihydro-6H-pyrimido[5,4-b][1,4]oxazin-4-yl)pyrrolidin-3-amine], for which the Kb is 251 nM. Turning to `CNC1CN(c2nc(N)nc3c2OC[C@@H](C2CC2)N3)C1` [Example 3-3, (R)-7-Cyclopropyl-4-(3-(methylamino)azetidin-1-yl)-7,8-dihydro-6H-pyrimido[5,4-b][1,4]oxazin-2-amine], the Kb was 7.94 nM. Regarding `CN[C@@H]1CCN(c2nc(N)nc3c2OCC(C)CN3)C1` (stereo partly drawn) [Example 11-7, 7-Methyl-4-((R)-3-(methylamino)pyrrolidin-1-yl)-6,7,8,9-tetrahydropyrimido[5,4-b][1,4]oxazepin-2-amine], the Kb was 251 nM. Consider `CN[C@@H]1CCN(c2nc(N)nc3c2OCC(C)N3)C1` (stereo partly drawn) [Example 1-2, 7-Methyl-4-((R)-3-(methylamino)pyrrolidin-1-yl)-7,8-dihydro-6H-pyrimido[5,4-b][1,4]oxazin-2-amine], for which the Kb is 12.6 nM. `CN[C@@H]1CCN(c2nc(N)nc3c2OC[C@]2(C)CCCN32)C1` [Example 1-23, (S)-6a-Methyl-4-((R)-3-(methylamino)pyrrolidin-1-yl)-6a,7,8,9-tetrahydro-6H-pyrimido[5,4-b]pyrrolo[1,2-d][1,4]oxazin-2-amine]: the Kb is 39.8 nM. For `CN[C@@H]1CCN(c2nc(N)nc3c2OCC[C@@H]2CCCN32)C1` [Example 11-10, (S)-4-((R)-3-(Methylamino)pyrrolidin-1-yl)-6,7,7a,8,9,10-hexahydropyrimido[5,4-b]pyrrolo[1,2-d][1,4]oxazepin-2-amine], the Kb was 794 nM. Take `CN[C@@H]1CCN(c2nc(N)nc3c2OCC(CC(C)C)N3)C1` (stereo partly drawn) [Example 1-7, 7-isobutyl-4-((R)-3-(methylamino)pyrrolidin-1-yl)-7,8-dihydro-6H-pyrimido[5,4-b][1,4]oxazin-2-amine]: the Kb was 20 nM. `CNC1CN(c2nc(N)nc3c2OC[C@@H]([C@H](C)OC)N3)C1` [Example 3-5, (S)-7-((S)-1-Methoxyethyl)-4-(3-(methylamino)azetidin-1-yl)-7,8-dihydro-6H-pyrimido[5,4-b][1,4]oxazin-2-amine]: the Kb was 20 nM. `CN[C@@H]1CCN(c2ncnc3c2OCC[C@H](C(C)C)N3)C1` [Example 14-2, (R)-1-((R)-8-Isopropyl-6,7,8,9-tetrahydropyrimido[5,4-b][1,4]oxazepin-4-yl)-N-methylpyrrolidin-3-amine]: the Kb was 100 nM.

Take `CN[C@@H]1CCN(c2nc(N)nc3c2OC[C@@H]([C@H](C)OC)N3)C1` [Example 1-11, (S)-7-((S)-1-Methoxyethyl)-4-((R)-3-(methylamino)pyrrolidin-1-yl)-7,8-dihydro-6H-pyrimido[5,4-b][1,4]oxazin-2-amine]: the Kb was 15.8 nM. Regarding `CO[C@H](C)[C@@H]1COc2c(ncnc2N2CC[C@@H](N)C2)N1` [Example 8-2, (R)-1-((S)-7-((R)-1-Methoxyethyl)-7,8-dihydro-6H-pyrimido[5,4-b][1,4]oxazin-4-yl)pyrrolidin-3-amine], the Kb is 631 nM. Turning to `CC(C)[C@H]1CCOc2c(nc(N)nc2N2CC[C@@H](N)C2)N1` [Example 12-2, (R)-4-((R)-3-Aminopyrrolidin-1-yl)-8-isopropyl-6,7,8,9-tetrahydropyrimido[5,4-b][1,4]oxazepin-2-amine], the Kb is 39.8 nM.

With `CCC1CNc2nc(N)nc(N3CC[C@@H](NC)C3)c2OC1` (stereo partly drawn) [Example 11-8, 7-Ethyl-4-((R)-3-(methylamino)pyrrolidin-1-yl)-6,7,8,9-tetrahydropyrimido[5,4-b][1,4]oxazepin-2-amine], the Kb is 31.6 nM.

On to `CC(C)[C@@H]1COc2c(nc(N)nc2N2CC(N)C2)N1` [Example 4-2, (R)-4-(3-Aminoazetidin-1-yl)-7-isopropyl-7,8-dihydro-6H-pyrimido[5,4-b][1,4]oxazin-2-amine], for which the Kb is 63.1 nM. For `CC[C@@H]1COc2c(nc(N)nc2N2CC(N)C2)N1` [Example 4-1, (R)-4-(3-Aminoazetidin-1-yl)-7-ethyl-7,8-dihydro-6H-pyrimido[5,4-b][1,4]oxazin-2-amine], the Kb was 79.4 nM.

Consider `CO[C@@H](C)[C@@H]1COc2c(nc(N)nc2N2CC[C@@H](N)C2)N1` [Example 2-5, (S)-4-((R)-3-Aminopyrrolidin-1-yl)-7-((S)-1-methoxyethyl)-7,8-dihydro-6H-pyrimido[5,4-b][1,4]oxazin-2-amine], for which the Kb is 79.4 nM. In the case of `CN[C@@H]1CCN(c2ncnc3c2OC[C@@H]([C@@H](C)OC)N3)C1` [Example 7-4, (R)-1-((S)-7-((R)-1-Methoxyethyl)-7,8-dihydro-6H-pyrimido[5,4-b][1,4]oxazin-4-yl)-N-methylpyrrolidin-3-amine], the Kb is 31.6 nM.

Regarding `CN[C@@H]1CCN(c2nc(N)nc3c2OCCCN3)C1` [Example 11-1, (R)-4-(3-(Methylamino)pyrrolidin-1-yl)-6,7,8,9-tetrahydropyrimido[5,4-b][1,4]oxazepin-2-amine], the Kb is 200 nM. Consider `CN[C@@H]1CCN(c2nc(N)nc3c2OCC[C@H](C(C)C)N3)C1` [Example 11-6, (R)-8-Isopropyl-4-((R)-3-(methylamino)pyrrolidin-1-yl)-6,7,8,9-tetrahydropyrimido[5,4-b][1,4]oxazepin-2-amine], for which the Kb was 12.6 nM. On to `CO[C@H](C)[C@@H]1COc2c(nc(N)nc2N2CC[C@@H](N)C2)N1` [Example 2-4, (S)-4-((R)-3-Aminopyrrolidin-1-yl)-7-((R)-1-methoxyethyl)-7,8-dihydro-6H-pyrimido[5,4-b][1,4]oxazin-2-amine], for which the Kb was 50.1 nM. Regarding `CN[C@@H]1CCN(c2ncnc3c2OC[C@@H](C2CC2)N3)C1` [Example 7-2, (R)-1-((R)-7-Cyclopropyl-7,8-dihydro-6H-pyrimido[5,4-b][1,4]oxazin-4-yl)-N-methylpyrrolidin-3-amine], the Kb is 3.16 nM.

For the molecule `CN[C@@H]1CCN(c2nc(N)nc3c2O[C@@H](C)[C@@H](C)N3)C1` [Example 1-16, (6S,7R)-6,7-Dimethyl-4-((R)-3-(methylamino)pyrrolidin-1-yl)-7,8-dihydro-6H-pyrimido[5,4-b][1,4]oxazin-2-amine], the Kb is 31.6 nM.

On to `CN[C@@H]1CCN(c2nc(N)nc3c2OCC(C(C)C)N3C)C1` (stereo partly drawn) [Example 1-20, 7-Isopropyl-8-methyl-4-((R)-3-(methylamino)pyrrolidin-1-yl)-7,8-dihydro-6H-pyrimido[5,4-b][1,4]oxazin-2-amine], for which the Kb was 100 nM.
